From US10358683B2, “Compositions and methods for determining whether a subject would benefit from co-receptor inhibitor therapy” (priority 2007, dated 2019)
Like-named read-outs stand apart in the source and are kept apart here.

What was measured:
dual-tropic viruses = assay: Infection of PBMCs by fully replication competent viruses (FIG. 7, summary); format: cell-based, HIV-1
Procedure: (§1) First, 35 gp160 envelope genes derived from different patient samples that were originally identified as dual-tropic were cloned into an expression vector as described in Example 1. Tropism of pseudotyped virus was determined by measuring luciferase activity (relative light units, RLU) following infection of U87/CD4+CCR5+ or U87/CD4+CXCR4+ cells as described above. Inhibition of infection by small molecule CCR5-(Merck) and CXCR4-(AMD3100; AnorMED) inhibitors was examined on U87/CD4+CCR5+CXCR4+ cells, U87/CD4+CXCR4+ cells, and U87/CD4+CCR5+ cells. A subset of the envelope genes were also inserted into an NL4-3 infectious clone and evaluated for their ability to infect PBMCs in the presence of the CCR5- or CXCR4-inhibitors.

[1] = system: dual-tropic HIV-1 variants; settings: for suppression of CXCR4-tropic virus: patients, 10 days of therapy
Procedure: First, samples from 26 subjects administered AMD3100 for 10 days were obtained prior to therapy and on day 11 following the 10 days of therapy. Co-receptor tropism of the viral populations from both sets of samples were then determined according to Example 1. […] 37(2):1253-62.

Clone 22 (R5~X4_4) = format: cell-based, HIV-1; settings: PBMCs; Clone 22 envelope in NL4-3 infectious clone, tropism subtype R5~X4
Procedure: as §1

Clone 26 (R5~X4_1) = format: cell-based, HIV-1; settings: PBMCs; Clone 26 envelope in NL4-3 infectious clone, tropism subtype R5~X4
Procedure: as §1

Clone 11 (R5 >> X4_2) = format: cell-based, HIV-1; settings: PBMCs; Clone 11 envelope in NL4-3 infectious clone, tropism subtype R5 >> X4
Procedure: as §1

JRCSF (R5) = format: cell-based, HIV-1; settings: PBMCs, tropism subtype R5
Procedure: as §1

NL43 (X4) = format: cell-based, HIV-1; settings: PBMCs; NL43, tropism subtype X4
Procedure: as §1

Clone 33 (X4 >> R5_2) = format: cell-based, HIV-1; settings: PBMCs; Clone 33 envelope in NL4-3 infectious clone, tropism subtype X4 >> R5
Procedure: as §1

Clone 34 (X4 >> R5_1) = format: cell-based, HIV-1; settings: PBMCs; Clone 34 envelope in NL4-3 infectious clone, tropism subtype X4 >> R5
Procedure: as §1

Clone 25 (R5~X4_2) = format: cell-based, HIV-1; settings: PBMCs; Clone 25 envelope in NL4-3 infectious clone, tropism subtype R5~X4
Procedure: as §1

Clone 4 (R5 >> X4_1) = format: cell-based, HIV-1; settings: PBMCs; Clone 4 envelope in NL4-3 infectious clone, tropism subtype R5 >> X4
Procedure: as §1

Clone 28 (R5~X4_3) = format: cell-based, HIV-1; settings: PBMCs; Clone 28 envelope in NL4-3 infectious clone, tropism subtype R5~X4
Procedure: as §1

Clone 31 (X4 >> R5_3) = format: cell-based, HIV-1; settings: PBMCs; Clone 31 envelope in NL4-3 infectious clone, tropism subtype X4 >> R5
Procedure: as §1

Dual_X-tropic viruses = settings: fully replication competent Dual_X-tropic viruses, PBMCs
Procedure: as §1

[2] = system: primarily CCR5-tropic viruses; format: cell-based, HIV-1; settings: primarily CCR5-tropic viruses into CCR5- and CXCR4-expressing cells
Procedure: (§2) Susceptibility assays for HIV-1 entry inhibitors were performed using packaging host cells consisting of the human embryonic kidney cell line 293 (Cell Culture Facility, UC San Francisco, SF, Calif.) and target host cells consisting of a human osteosarcoma (HOS) cell line expressing CD4 (HT4) plus CCR5, and CXCR4, or astrocytoma (U-87) cell lines expressing either CD4 and CCR5 or CD4 and CXCR4.
(§3) Drug susceptibility testing was performed using pHIVenv and pHIVluc or pHIVlucΔU3. Pseudotyped HIV particles containing envelope proteins encoded by the subject derived segment were produced by transfecting a packaging host cell (HEK 293) with resistance test vector DNA. […] After infection (˜72 h) the target cells are lysed and luciferase activity is measured. […] The amount of luciferase activity detected in the infected cells is used as a direct measure of “infectivity” (FIGS. 1 and 2). […]
(§4) Drug susceptibility is assessed by comparing the infectivity in the absence of drug to infectivity in the presence of drug. […]
(§5) First, 35 gp160 envelope genes derived from different patient samples that were originally identified as dual-tropic were cloned into an expression vector as described in Example 1. Tropism of pseudotyped virus was determined by measuring luciferase activity (relative light units, RLU) following infection of U87/CD4+CCR5+ or U87/CD4+CXCR4+ cells as described above. […]

[3] = system: primarily CXCR4-tropic viruses; assay: Entry of pseudotyped viruses into U87 cells in presence of co-receptor inhibitors (FIG. 5); format: cell-based, HIV-1
Procedure: as §2, §3, §4, §5

[4] = subjects with mixed populations, following treatment

## c1cc(CN2CCCNCCNCCCNCC2)ccc1CN1CCCNCCNCCCNCC1 [AMD, AMD3100]
dual-tropic viruses
  inhibition of entry: partially inhibited
[1]; populations comprising 100% dual viruses (homogeneous) at baseline
  suppression of CXCR4-tropic virus: not suppressed
[1]; populations containing mixtures of CCR5-tropic and CXCR4-tropic or dual-tropic viruses at baseline
  suppression of CXCR4-tropic virus: experienced suppression
[1]; [4]
  entry into cells using the CXCR4 co-receptor: efficiently blocked
  entry using the CCR5 co-receptor: unaffected
Clone 22 (R5~X4_4)
  % inhibition: −12%
Clone 26 (R5~X4_1)
  % inhibition: 41%
Clone 11 (R5 >> X4_2)
  % inhibition: −3%
JRCSF (R5)
  % inhibition: 11%
NL43 (X4)
  % inhibition: 99%
Clone 33 (X4 >> R5_2)
  % inhibition: 99%
Clone 34 (X4 >> R5_1)
  % inhibition: 99%
Clone 25 (R5~X4_2)
  % inhibition: 27%
Clone 4 (R5 >> X4_1)
  % inhibition: −1%
Clone 28 (R5~X4_3)
  % inhibition: 19%
Clone 31 (X4 >> R5_3)
  % inhibition: 98%
Dual_X-tropic viruses
  inhibition of entry: substantially inhibited
[2]
  inhibition of entry: not inhibited
[3]; primarily CXCR4-tropic viruses into CCR5- and CXCR4-expressing cells
  inhibition of entry: inhibited
[3]; primarily CXCR4-tropic viruses into CXCR4-expressing cells
  inhibition of entry: inhibited
